Results: US20240117402A1, “METHODS FOR (POLY) PEPTIDE TANDEM LIGATION AND CYCLIZATION” (Nanyang Technological University, priority 2021, published 2024)
Where no end group is shown, it is not given here.

Legend:
[1] = tested on: butelase-1; assay: Butelase-1-catalyzed peptide cyclization (substrate screen, pH scan, kinetics); assay type: biochemical; conditions: for substrate preference among P1-Asp peptides: 25 nM butelase-1, 5 μM peptide, pH 4.5, 25° C., 60 min
Protocol: (§1) FIG. 9. Screening of P1′-Asp peptides for cyclization by A) VyPAL2, B) butelase-1 and C) OaAEP1b. Quantitative summary of reaction yields of the reaction mixtures. For each reaction, 25 nM of the enzyme and 5 μM of the peptide substrate (21a-21i) were mixed and reacted at pH 4.5, 25° C. for 60 min. The positive control peptide 21j was performed at the same conditions except at pH 7.4. Average yields and SDs were calculated from experiments performed in triplicate. The amino acid sequence of the peptides used are set forth in SEQ ID Nos. 15-24.
(§2) FIG. 10. Ligation activity of three different ligases under different pH and substrate. Cyclization activity of A) VyPAL2, B) Butelase-1 or C) OaAEP1b towards substrate 21e-DSL and 21j-NGL; Fold difference was calculated using the cyclization rate of 21j-NGL divided by that of 21e-DSL. All the results were the average reaction rate at different pH in triplicate experiments based on MALDI-TOF analysis. Light grey text in the “Fold difference” axis marks to the maximum fold difference.
(§3) FIG. 11. Enzymatic activity of three different ligases on the cyclization reaction of P1-Asp peptide 21e-DSL or 21a-DGL and P1-Asn-peptide 21j-NGL. A) Scheme of PAL-mediated P1-Asp peptide cyclization; B) Enzymatic kinetics of VyPAL2 in cyclizing 21e-DSL at pH 4.5; C) Enzymatic kinetics of VyPAL2 in cyclizing 21e-DSL at pH 7.0; D) Enzymatic kinetics of OaAEP1b in cyclizing 21a-DGL at pH 5.5; E) Enzymatic kinetics of Butelase-1 in cyclizing 21e-DSL at pH 4.5. F) Scheme of PAL-mediated cyclization of peptide 21j-NGL; G). Enzymatic kinetics of butelase-1 in cyclizing […] at pH 4.5; H)
(§4) Enzymatic kinetics of VyPAL2 in cyclizing 21j-NSL at pH 4.5; I) Enzymatic kinetics of butelase-1 in cyclizing 21j-NSL at pH 7.4; J) Enzymatic kinetics of OaAEP1b in cyclizing 21j-NSL at pH 7.0. Sequences of peptides used are set forth in SEQ ID Nos. 15, 19, 24.
(§5) PALs recognize a tripeptide motif Asx-P1′-P2′ in the acyl donor substrate for their catalyzed ligation reactions. Because the formation of the acyl-enzyme thioester intermediate is the rate-limiting step, the leaving group P1′-P2′ also plays an important role in determining the catalytic kinetics of a particular 40 PAL-mediated reaction. Previous studies have determined Leu as a preferred P2′ residue. To identify the most favorable P1′ residues for PAL-catalyzed Asp-ligation, a panel of peptides (peptide 21a-21j) with C-terminal DXL and N-terminal GI motifs was synthesized and cyclization reactions performed. Peptide 21j with a C-terminal NGL, a P1-Asn peptide favored by VyPAL2, was used for comparison with the P1-Asp peptides 21a-21i. […] Meanwhile, the P1′ substrate specificities of the two other ligases - Butelase-1 and OaAEP1b - were also evaluated by using the same substrates 21a-21j.
A pH scan experiment with the other two ligases: butelase-1 and OaAEP1 b, for their cyclase activity on 21e and 21j was also conducted. […] In fact, the difference in reaction efficiency between 21j and 21e was about 950 times at pH 7.4 (FIG. 10). […] This makes VyPAL2 a more efficient ligase than butelase-1 for Asp-mediated protein modification.

[2] = tested on: VyPAL2; assay: VyPAL2-catalyzed peptide cyclization (substrate screen, pH scan, kinetics); assay type: biochemical, Viola yedoensis
Protocol: as §1, §2, §3, §4, §5
scanning experiment using the two peptides 21e and 21j was performed. Cyclization reactions were conducted by mixing 5 μM of peptide 21e or 50 μM of 21j with 25 nM of VyPAL2 over a pH range of 4.0 to 7.4. Results confirmed that the optimum pH for the cyclization of the P1-Asn peptide 21j was 6.5-7.4. But for the P1-Asp peptide 21e (which has the C-terminal DSL tripeptide), the optimum pH was 4.0-4.5.
It is worth noting that, at pH 7.4, VyPAL2 processed peptide 21j for cyclization at a rate that is >1000 folds faster than processing peptide 21e (FIG. 10). This enormous difference of reactivity essentially established the orthogonality for ligation at Asn in the presence of aspartyl bonds.

[3] = tested on: butelase-1; assay: Butelase-1-mediated intermolecular peptide ligation kinetics (HPLC); assay type: biochemical
Protocol: (§6) FIG. 3. Kinetic studies on VyPAL2- and butelase 1-catalyzed intermolecular ligations. A) Peptide 1 (SEQ ID NO:7) containing the C-terminal NHV sequence was used at varying concentrations (50 — 800 μM) to react with peptide 2 (SEQ ID NO:8) at constant concentration (1 mM); B) Peptide 4 (SEQ ID NO:9) at a constant concentration (1.5 mM) was reacted with the GF-peptide 5 (SEQ ID NO:10) at varying concentrations (50-800 μM). C) Peptide 2 at a constant concentration (1.5 mM) was reacted with the -NGF peptide 7 (SEQ ID NO:11) at varying concentrations (50-800 μM). The ligation product 3 or 6 was confirmed by ESI-MS. The reaction rates were calculated from the consumption of the limiting substrate 1, 5 or 7. Initial rate (V0) at different concentrations of the limiting substrate were used for Michaelis-Menten curve plotting. For each kinetic calculation, a lineweaver-Burk plot was also used to confirm the analysis.
(§7) PAL enzymes have been used extensively for protein single-site labeling and macrocyclization. However, using two PALs of different substrate specificity for bio-orthogonal and dual ligation remains unexplored. […] To determine the differences quantitatively, firstly the kinetics of VyPAL2 and butelase-1 toward peptide 1 or 7 which has a C-terminal NHV or NGF tripeptide motif respectively were studied (Table 1). The nucleophile substrate, used at a constant concentration, was peptide 2 which contains an N-terminal GI dipeptide motif. Reverse-phase analytical HPLC was used to monitor and quantify the ligation reaction. […] Similarly, kinetics of the two ligases towards a GF-starting nucleophile substrate, peptide 5, were also examined.
(§8) In this case, the acyl substrate, now kept at a constant concentration for the kinetic study, was peptide 4 which contains NGL at the C-terminus, a favorable motif for both VyPAL2 and butelase-1. It was shown that VyPAL2 has 5-fold catalytic efficiency than butelase-1 towards the GF-peptide substrate 5 (Table 1 and FIG. 3). In summary, the kinetic studies confirm the differential activities of butelase-1 and VyPAL2 toward certain substrate sequences, which provide strong support for a two-PAL, bio-orthogonal tandem ligation scheme for protein dual labeling.

[4] = tested on: VyPAL2; assay: VyPAL2-mediated intermolecular peptide ligation kinetics (HPLC); assay type: biochemical, Viola yedoensis; conditions: VyPAL2, limiting substrate 50-800 μM
Protocol: as §6, §7, §8

[5] = Butelase-1, cyclization, pH 4.5
[6] = Butelase-1, limiting substrate 50-800 μM, partner peptide constant

Chain of butelase-1 (as listed by the source): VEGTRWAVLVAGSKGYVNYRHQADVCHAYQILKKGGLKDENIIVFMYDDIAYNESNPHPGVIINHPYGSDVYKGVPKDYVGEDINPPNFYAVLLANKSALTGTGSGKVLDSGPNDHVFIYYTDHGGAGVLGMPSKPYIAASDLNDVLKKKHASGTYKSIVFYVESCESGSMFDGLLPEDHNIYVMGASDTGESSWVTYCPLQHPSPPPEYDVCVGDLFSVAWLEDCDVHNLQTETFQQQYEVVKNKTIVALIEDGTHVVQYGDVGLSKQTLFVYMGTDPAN
Chain of VyPAL2 (as listed by the source): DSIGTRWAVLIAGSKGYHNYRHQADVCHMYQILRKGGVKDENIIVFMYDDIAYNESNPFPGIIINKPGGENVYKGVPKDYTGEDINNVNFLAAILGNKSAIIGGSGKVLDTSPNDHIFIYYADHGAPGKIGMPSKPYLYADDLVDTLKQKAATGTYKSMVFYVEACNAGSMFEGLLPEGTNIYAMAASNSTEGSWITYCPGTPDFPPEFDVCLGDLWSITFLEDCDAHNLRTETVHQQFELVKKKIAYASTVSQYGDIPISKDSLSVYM

GISTKSIPPISYRDRL (GISTKSIPPISYRDRL-NH2) [Peptide 21f]
substrate preference among P1-Asp peptides [1]: least favored P1-Asp substrate

GISTKSIPPISYRDLL (GISTKSIPPISYRDLL-NH2) [Peptide 21d]
substrate preference among P1-Asp peptides [1]: slight preference

GISTKSIPPISYRDSL (GISTKSIPPISYRDSL-NH2) [Peptide 21e]
Km [1, 5]: 16.6 ± 2.3 µM | kcat [1, 5]: 0.11 ± 0.01 s⁻¹ | cyclization rate among P1-Asp peptides 21a-21i ([2]; 25 nM VyPAL2, 5 μM peptide, pH 4.5, 25° C., 60 min): fastest cyclization rate | optimum pH for cyclization ([2]; 25 nM VyPAL2, pH range 4.0 to 7.4, 5 μM 21e or 50 μM 21j): 4.0-4.5 | Km ([2]; VyPAL2, cyclization, pH 4.5): 25.6 ± 2.6 µM | kcat ([2]; VyPAL2, cyclization, pH 4.5): 0.28 ± 0.023 s⁻¹ | Km ([2]; VyPAL2, cyclization, pH 7.0): 42.3 ± 2.8 µM | kcat ([2]; VyPAL2, cyclization, pH 7.0): 0.021 ± 0.001 s⁻¹ | Vmax ([2]; VyPAL2, cyclization, pH 7.4): 0.004 µM/min

GISTKSIPPISYRDKL (GISTKSIPPISYRDKL-NH2) [Peptide 21g]
substrate preference among P1-Asp peptides [1]: slight preference

Ac-KKLAVINHV (Ac-KKLAVINHV-NH2) [Peptide 1]
Km [3, 6]: 85 ± 3 µM | kcat [3, 6]: 1.47 ± 0.04 S^−1 | catalytic activity of butelase-1 relative to VyPAL2 towards the substrate ([3]; intermolecular ligation): about 18 times | Km ([4]; partner peptide constant): 182 ± 6 µM | kcat ([4]; partner peptide constant (1 with 2 at 1 mM; 5 with 4 at 1.5 mM; 7 with 2 at 1.5 mM)): 0.17 ± 0.01 S^−1
